{"source": "patent US20230346760A1", "about": "“AGENTS TO PREVENT TISSUE DAMAGE FROM CLOSTRIDIUM DIFFICILE INFECTIONS BY INHIBITION OF THE GUT-DAMAGING BACTERIAL TOXINS TCDA AND TCDB” (ALBERT EINSTEIN COLLEGE OF MEDICINE, priority 2020, published 2023)", "key": {"[1]": {"target": "TcdB (Clostridioides difficile, UniProt P18177)", "sequence (P18177 1-543 limits assumed)": "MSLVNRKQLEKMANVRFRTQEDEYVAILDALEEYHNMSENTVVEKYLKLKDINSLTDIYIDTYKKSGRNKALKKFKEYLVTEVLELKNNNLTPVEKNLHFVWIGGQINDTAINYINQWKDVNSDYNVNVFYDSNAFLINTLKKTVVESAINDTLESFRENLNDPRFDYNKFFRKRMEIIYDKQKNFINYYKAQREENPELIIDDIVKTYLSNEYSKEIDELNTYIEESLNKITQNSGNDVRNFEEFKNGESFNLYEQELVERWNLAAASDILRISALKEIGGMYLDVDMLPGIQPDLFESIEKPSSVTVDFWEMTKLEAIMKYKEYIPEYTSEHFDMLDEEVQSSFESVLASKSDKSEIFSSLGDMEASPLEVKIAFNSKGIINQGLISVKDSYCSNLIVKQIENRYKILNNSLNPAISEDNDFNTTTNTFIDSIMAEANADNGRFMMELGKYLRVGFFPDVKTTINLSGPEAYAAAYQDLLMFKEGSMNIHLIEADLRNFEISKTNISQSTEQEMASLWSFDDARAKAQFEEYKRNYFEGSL", "experiment": "Kinetic inhibition of TcdB glucosyltransferase / UDP-glucose hydrolysis", "type": "biochemical, Clostridium difficile"}, "[2]": {"tested_on": "TcdA induced apoptosis in HT-29 cells", "type": "cell-based"}, "[3]": {"target": "T1, TcdA (Clostridioides difficile, UniProt P16154)", "T1 sequence (P16154 whole entry, looked up)": "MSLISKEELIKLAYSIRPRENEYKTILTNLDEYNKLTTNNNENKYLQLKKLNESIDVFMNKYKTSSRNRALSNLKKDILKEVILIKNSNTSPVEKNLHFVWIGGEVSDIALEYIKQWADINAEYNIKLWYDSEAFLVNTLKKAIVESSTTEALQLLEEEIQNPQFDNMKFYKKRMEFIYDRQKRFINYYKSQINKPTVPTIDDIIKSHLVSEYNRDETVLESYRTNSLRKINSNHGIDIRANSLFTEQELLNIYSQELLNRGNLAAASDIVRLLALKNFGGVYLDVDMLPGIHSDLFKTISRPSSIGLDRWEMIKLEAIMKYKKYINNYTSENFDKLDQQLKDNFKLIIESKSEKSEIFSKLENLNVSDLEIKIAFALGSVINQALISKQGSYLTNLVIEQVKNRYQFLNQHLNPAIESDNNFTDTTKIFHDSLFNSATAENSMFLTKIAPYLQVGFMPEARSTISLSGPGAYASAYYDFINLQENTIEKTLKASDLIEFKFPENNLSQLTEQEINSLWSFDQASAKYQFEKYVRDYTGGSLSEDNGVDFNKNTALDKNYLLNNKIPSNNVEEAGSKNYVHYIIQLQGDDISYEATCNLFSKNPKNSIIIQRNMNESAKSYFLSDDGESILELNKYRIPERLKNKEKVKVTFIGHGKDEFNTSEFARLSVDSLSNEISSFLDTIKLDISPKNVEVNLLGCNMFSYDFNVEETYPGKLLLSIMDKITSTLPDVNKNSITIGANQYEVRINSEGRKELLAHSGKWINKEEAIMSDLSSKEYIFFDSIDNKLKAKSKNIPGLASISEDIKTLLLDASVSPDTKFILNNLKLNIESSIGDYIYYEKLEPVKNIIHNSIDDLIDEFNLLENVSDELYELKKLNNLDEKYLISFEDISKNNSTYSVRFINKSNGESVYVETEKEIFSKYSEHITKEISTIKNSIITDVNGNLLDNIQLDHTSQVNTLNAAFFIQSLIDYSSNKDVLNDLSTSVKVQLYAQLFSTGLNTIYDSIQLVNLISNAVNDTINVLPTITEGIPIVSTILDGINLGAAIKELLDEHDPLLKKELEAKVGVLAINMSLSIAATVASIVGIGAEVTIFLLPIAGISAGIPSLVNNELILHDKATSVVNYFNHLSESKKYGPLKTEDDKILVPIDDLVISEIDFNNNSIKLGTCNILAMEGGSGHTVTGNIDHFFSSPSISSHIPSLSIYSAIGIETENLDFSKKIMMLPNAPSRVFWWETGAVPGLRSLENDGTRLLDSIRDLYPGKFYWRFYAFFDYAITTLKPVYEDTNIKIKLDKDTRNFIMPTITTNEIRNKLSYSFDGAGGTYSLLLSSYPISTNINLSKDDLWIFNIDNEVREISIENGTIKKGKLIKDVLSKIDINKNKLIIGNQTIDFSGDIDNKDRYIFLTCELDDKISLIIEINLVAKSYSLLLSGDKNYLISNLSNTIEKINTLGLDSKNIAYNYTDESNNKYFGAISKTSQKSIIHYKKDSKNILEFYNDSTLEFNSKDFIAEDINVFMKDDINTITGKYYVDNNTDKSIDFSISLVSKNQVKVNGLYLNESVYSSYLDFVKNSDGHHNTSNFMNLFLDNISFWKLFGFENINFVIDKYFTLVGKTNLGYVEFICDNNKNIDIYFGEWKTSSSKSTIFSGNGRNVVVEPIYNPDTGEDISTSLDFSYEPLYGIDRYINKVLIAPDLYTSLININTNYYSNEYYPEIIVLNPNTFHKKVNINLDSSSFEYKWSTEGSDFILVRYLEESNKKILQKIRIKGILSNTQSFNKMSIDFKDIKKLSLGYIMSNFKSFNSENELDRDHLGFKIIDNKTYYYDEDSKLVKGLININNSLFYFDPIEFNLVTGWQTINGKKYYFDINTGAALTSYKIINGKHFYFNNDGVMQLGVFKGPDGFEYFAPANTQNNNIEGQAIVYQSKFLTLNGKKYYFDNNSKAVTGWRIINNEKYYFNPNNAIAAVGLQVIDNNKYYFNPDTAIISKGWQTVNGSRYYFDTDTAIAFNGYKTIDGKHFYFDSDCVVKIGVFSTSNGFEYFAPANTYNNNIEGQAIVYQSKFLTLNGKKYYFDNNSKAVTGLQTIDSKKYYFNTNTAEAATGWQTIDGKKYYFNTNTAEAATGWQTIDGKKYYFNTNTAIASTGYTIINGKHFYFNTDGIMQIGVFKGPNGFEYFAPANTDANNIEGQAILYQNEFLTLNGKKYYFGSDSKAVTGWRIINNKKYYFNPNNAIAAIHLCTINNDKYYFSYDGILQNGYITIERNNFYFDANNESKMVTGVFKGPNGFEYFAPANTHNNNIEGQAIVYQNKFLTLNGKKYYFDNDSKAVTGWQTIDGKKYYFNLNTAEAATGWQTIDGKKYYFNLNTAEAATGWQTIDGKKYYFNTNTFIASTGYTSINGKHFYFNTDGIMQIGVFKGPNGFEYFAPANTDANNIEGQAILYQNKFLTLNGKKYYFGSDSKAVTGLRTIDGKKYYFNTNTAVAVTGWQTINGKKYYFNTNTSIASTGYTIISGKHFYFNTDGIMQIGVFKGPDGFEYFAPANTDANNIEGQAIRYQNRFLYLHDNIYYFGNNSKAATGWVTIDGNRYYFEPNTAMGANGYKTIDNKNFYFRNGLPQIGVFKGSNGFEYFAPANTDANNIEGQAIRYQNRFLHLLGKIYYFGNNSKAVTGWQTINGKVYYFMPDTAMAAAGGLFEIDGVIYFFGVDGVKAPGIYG", "experiment": "biochemical", "type": "binding, Clostridium difficile"}, "[4]": {"tested_on": "Rac1 glucosylation by TcdB in IMR90 cells", "type": "cell-based"}, "[5]": {"tested_on": "TcdB induced cell rounding of CHO-K1 cells", "type": "cell-based"}, "[6]": {"target": "T2, TcdB-GTD (Clostridioides difficile, UniProt P18177)", "T2 construct": "(50 mM HEPES pH 7.5, 100 mM KCl, 4 mM MgCl2, 1 mM MnCl2) and 40 μM TcdB-GTD", "T2 sequence (P18177 2-543 limits assumed)": "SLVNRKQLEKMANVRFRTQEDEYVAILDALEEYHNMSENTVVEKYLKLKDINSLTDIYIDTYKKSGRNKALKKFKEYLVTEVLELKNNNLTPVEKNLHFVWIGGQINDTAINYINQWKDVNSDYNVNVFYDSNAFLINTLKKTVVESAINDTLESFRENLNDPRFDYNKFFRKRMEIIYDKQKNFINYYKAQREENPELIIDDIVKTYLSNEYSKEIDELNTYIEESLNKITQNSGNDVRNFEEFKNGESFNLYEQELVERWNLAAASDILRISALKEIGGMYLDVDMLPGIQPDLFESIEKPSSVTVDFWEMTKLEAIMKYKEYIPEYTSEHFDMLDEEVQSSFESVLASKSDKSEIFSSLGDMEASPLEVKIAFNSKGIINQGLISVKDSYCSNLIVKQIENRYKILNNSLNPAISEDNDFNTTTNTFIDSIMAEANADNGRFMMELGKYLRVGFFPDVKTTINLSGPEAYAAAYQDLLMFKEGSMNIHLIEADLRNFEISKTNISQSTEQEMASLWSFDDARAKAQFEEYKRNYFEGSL", "type": "binding, Clostridium difficile"}, "[7]": {"tested_on": "TcdA induced rounding of CHO-K1 cells", "type": "cell-based"}, "[8]": {"tested_on": "Rac1 glucosylation by TcdA in IMR90 cells", "type": "cell-based"}, "[9]": {"target": "T1, TcdA", "type": "biochemical, Clostridium difficile"}}, "note": "Entries after “also recorded” stand apart in the source; their conditions may differ. Like-named read-outs stand apart in the source and are kept apart here.", "data": [{"smiles": "O=C1O[C@H](CO)[C@@H](O)[C@H](O)[C@H]1O", "note": "[Gluconolactone, reference compound]", "values": [{"measurement": "inhibition of Tcds (in words)", "setting": "[1]", "result": "poor inhibitor"}]}, {"smiles": "OC[C@H]1CNC[C@@H](O)[C@@H]1O", "note": "[Isofagomine, (3R,4R,5R)-5-(hydroxymethyl)-3,4-piperidinediol]", "values": [{"measurement": "apoptosis (Annexin V signal)", "setting": "[2]", "result": "prevented apoptosis"}, {"measurement": "Kd", "setting": "[3]", "result": 0.007, "unit": "µM"}, {"measurement": "un-glucosylated Rac1 (Mab102) compared to total Rac1", "setting": "[4]", "result": "dose-dependent maintenance of un-glucosylated Rac1"}, {"measurement": "protection from cell rounding", "setting": "[5]", "result": "sufficient to protect CHO-K1 cells from rounding; also recorded: prevent rounding"}, {"measurement": "ITC binding", "setting": "[6]", "result": "no binding"}, {"measurement": "Kd", "setting": "[6]", "result": "0.0669 ± 0.0197", "unit": "µM"}, {"measurement": "N", "setting": "[6]", "result": "0.5±0.01"}, {"measurement": "ΔG", "setting": "[6]", "result": "-9.8 ± 0.3", "unit": "kcal/mol"}, {"measurement": "ΔH", "setting": "[6]", "result": "-10.3 ± 0.1", "unit": "kcal/mol"}, {"measurement": "−TΔS", "setting": "[6]", "result": "0.5 ± 0.2", "unit": "kcal/mol"}, {"measurement": "Ki", "setting": "[1]; in the presence of 2×Ki for UDP, read-out: kinetic Ki (apparent Ki)", "result": 0.29, "unit": "µM"}, {"measurement": "increase of affinity", "setting": "[1]; when UDP is present at 2×Ki", "result": 3, "unit": "fold"}, {"measurement": "mechanism of inhibition", "setting": "[1]; with respect to UDP-glucose", "result": "uncompetitive"}, {"measurement": "protection from cell rounding", "setting": "[7]", "result": "prevent rounding"}, {"measurement": "un-glucosylated Rac1 (Mab102) compared to total Rac1", "setting": "[8]", "result": "dose-dependent maintenance of un-glucosylated Rac1"}]}, {"smiles": "OC[C@H]1CNC(O)[C@@H](O)[C@@H]1O", "note": "(stereo partly shown) [Noeuromycin, noeuromycin]", "values": [{"measurement": "apoptosis (Annexin V signal)", "setting": "[2]", "result": "prevented apoptosis"}, {"measurement": "Ki", "setting": "[9]", "result": 0.2, "unit": "µM"}, {"measurement": "un-glucosylated Rac1 (Mab102) compared to total Rac1", "setting": "[4]", "result": "dose-dependent maintenance of un-glucosylated Rac1"}, {"measurement": "protection from cell rounding", "setting": "[5]", "result": "prevent rounding"}, {"measurement": "Kd", "setting": "[6]", "result": "0.18 ± 0.0697", "unit": "µM"}, {"measurement": "N", "setting": "[6]", "result": "1.2±0.1"}, {"measurement": "ΔG", "setting": "[6]", "result": "-9.3 ± 0.3", "unit": "kcal/mol"}, {"measurement": "ΔH", "setting": "[6]", "result": "-5.2 ± 0.1", "unit": "kcal/mol"}, {"measurement": "Ki", "setting": "[1]; TcdB-UDP, read-out: Ki", "result": 4, "unit": "µM"}, {"measurement": "protection from cell rounding", "setting": "[7]", "result": "prevent rounding"}, {"measurement": "un-glucosylated Rac1 (Mab102) compared to total Rac1", "setting": "[8]", "result": "dose-dependent maintenance of un-glucosylated Rac1"}]}, {"smiles": "OC[C@H]1NC[C@H](O)[C@@H](O)[C@@H]1O", "note": "[deoxynorjirimycin, reference compound]", "values": [{"measurement": "inhibition of Tcds (in words)", "setting": "[1]", "result": "poor inhibition"}]}]}
